Experimental data published in patent publication US20240374581A1, “SALT TYPES OF TRICYCLIC TETRAHYDRO ISOQUINOLINE DERIVATIVE” (JIANGSU HENGRUI PHARMACEUTICALS CO., LTD., priority 2021, published 2024).

Experiments:
hERG potassium channels = hERG potassium channels (Homo sapiens (Human), UniProt Q12809); assay: Blocking of hERG potassium currents (automated patch clamp, HEK293-hERG); format: cell-based
Method: The blocking of hERG potassium currents by the compound disclosed herein was tested in a stable cell strain transfected with hERG potassium channels using automated patch clamp.
Stably-expressed HEK293-hERG cell strains were subcultured at a density of 1:4 in an MEM/EBSS medium (10% FBS, 400 μg/mL G418, 1% MEM non-essential amino acid solution (100×), and 1% sodium pyruvate solution) and subjected to an automated patch clamp experiment within 48-72 h after the start of the culture. On the day of the experiment, the cells were digested with 0.25% pancreatin, then centrifuged, collected, and resuspended in an extracellular fluid (140 mM NaCl, 4 mM KCl, 1 mM MgCl2, 2 mM CaCl2, 5 mM D-glucose monohydrate, 10 mM Hepes, pH 7.4, 298 mOsm) to form a cell suspension. The cell suspension was placed on the cell bank of the Patchliner instrument that transferred the cells to the chip (NPC-16) using a negative pressure controller. The negative pressure drew individual cells to the wells of the chip. […] Data were recorded and analyzed using the HEAK Patchmaster, HEAK EPC10 patch clamp amplifier (Nanion), Pathliner software and Pathcontrol HTsoftware, and the current of the compound at each concentration and the current of the blank control were analyzed.

CYP3A4 = CYP3A4 (Homo sapiens (Human), UniProt P08684); assay: Inhibition of site of metabolism of testosterone in human liver microsome CYP3A4; format: in vitro ADME; settings: 30 min
Chain of CYP3A4 (P08684 whole entry): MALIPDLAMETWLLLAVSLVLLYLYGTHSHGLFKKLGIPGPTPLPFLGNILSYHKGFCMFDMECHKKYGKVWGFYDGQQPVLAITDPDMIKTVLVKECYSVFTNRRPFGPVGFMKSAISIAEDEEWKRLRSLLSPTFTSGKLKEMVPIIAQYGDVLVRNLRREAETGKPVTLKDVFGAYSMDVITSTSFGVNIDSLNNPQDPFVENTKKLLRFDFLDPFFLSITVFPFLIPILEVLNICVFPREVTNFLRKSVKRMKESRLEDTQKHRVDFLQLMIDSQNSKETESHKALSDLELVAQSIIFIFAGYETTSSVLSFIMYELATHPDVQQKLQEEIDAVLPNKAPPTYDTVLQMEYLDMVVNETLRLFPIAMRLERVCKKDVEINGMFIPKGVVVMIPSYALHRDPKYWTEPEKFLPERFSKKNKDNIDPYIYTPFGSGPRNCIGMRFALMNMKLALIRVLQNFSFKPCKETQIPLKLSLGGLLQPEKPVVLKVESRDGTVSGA
Method: • 1. Phosphate buffer (20×PBS, purchased from Sangon); • 2. NADPH (ACROS, A2646-71-1); • 3. Human liver microsome (Corning Gentest, Cat No. 452161, Lot No. 905002, Donor36); • 4. ABI QTrap 4000 LC-MS System (AB Sciex); • 5. ZORBAX Extend-C18, 3×50 mm, 3.5 m (Agilent, USA); • 6. CYP probe substrate (testosterone, Vocko, CAS No. [58-22-0]/75 μM) and positive control inhibitor (ketoconazole, SIGMA, Cat No. K1003-100MG).
A 100 mM PBS buffer was prepared. A 0.25 mg/mL microsome solution, a 7.5 mM MgCl2 and a 5 mM NADPH solution were prepared using the buffer. A30 mM stock solution was diluted with DMSO to obtain 30 mM, 10 mM, 3 mM, 1 mM, 0.3 mM, 0.03 mM, 0.003 mM and 0 mM serial solutions I, which were further diluted 200-fold with phosphate buffer (PBS) to obtain serial test solutions II (150, 50, 15, 5, 1.5, 0.15, 0.015 and 0 μM). A testosterone working solution was diluted with PBS to 375 μM. 40 μL of a 0.25 mg/mL microsome solution prepared in 7.5 mM MgCl2 and 20 μL of each of the 375 μM testosterone working solution and the compound working solutions (150, 50, 15, 5, 1.5, 0.15, 0.015 and 0 μM) were measured out and well mixed. […]
The IC50 value of the drug for the site of metabolism of testosterone in CYP3A4 was calculated by Graphpad Prism and is shown in Table 6.

[1] = Hygroscopicity study (DVS); format: physicochemical; settings: 25° C.
Method: DVS refers to dynamic vapor sorption: The measurement was conducted on SMS DVS Advantage; at 25° C., the humidity was changed as follows: 50%-95%-0%-95%-50%, in steps of 10% (5% for the last step) (specific humidity ranges are shown in corresponding patterns, and those listed here were used in most cases); the criterion was dm/dt≤0.002%.
The measurement was conducted with a Surface Measurement Systems intrinsic at 25° C., starting from 50% humidity in humidity range of 0%-95%, in steps of 10%; the criterion was dM/dT≤0.002% and TMAX of 360 min in two cycles.

Chain of hERG potassium channels (Q12809 whole entry): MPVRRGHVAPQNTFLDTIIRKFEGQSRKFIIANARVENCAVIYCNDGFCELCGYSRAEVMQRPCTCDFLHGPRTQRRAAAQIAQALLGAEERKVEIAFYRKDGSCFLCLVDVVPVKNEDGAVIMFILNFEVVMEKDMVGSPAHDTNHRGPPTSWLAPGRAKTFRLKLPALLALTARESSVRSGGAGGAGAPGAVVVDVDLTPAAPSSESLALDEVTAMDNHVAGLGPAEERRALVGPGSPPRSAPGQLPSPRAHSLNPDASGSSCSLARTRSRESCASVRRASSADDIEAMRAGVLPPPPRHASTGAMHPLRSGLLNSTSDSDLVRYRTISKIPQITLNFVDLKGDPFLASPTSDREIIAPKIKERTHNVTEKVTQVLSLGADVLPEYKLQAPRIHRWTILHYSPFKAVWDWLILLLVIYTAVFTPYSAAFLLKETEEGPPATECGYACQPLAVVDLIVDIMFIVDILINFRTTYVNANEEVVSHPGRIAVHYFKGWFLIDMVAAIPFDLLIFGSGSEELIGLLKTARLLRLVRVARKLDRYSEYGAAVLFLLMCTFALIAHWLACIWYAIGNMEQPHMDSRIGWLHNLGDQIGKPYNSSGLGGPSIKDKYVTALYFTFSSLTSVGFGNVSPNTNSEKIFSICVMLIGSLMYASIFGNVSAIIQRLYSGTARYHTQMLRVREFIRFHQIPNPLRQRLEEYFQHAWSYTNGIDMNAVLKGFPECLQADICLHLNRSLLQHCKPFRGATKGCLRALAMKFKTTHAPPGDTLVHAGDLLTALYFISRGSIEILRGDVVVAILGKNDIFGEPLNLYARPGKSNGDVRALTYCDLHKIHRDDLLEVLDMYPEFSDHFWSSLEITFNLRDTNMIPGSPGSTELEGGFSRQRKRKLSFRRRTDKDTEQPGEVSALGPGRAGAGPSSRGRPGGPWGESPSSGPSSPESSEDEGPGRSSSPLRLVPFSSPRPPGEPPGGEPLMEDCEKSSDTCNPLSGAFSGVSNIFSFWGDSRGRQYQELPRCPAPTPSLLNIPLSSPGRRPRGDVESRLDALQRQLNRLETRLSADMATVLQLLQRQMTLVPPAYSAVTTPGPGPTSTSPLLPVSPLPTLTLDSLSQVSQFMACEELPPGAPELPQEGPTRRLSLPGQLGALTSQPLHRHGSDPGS

## [2H]C1([2H])Oc2cc3c(cc2O1)[C@@H](c1ccc(NC2CN(CCCF)C2)cn1)N(CC(F)(F)CO)[C@H](C)C3 [Compound 1, 2,2-Difluoro-3-((5S,7R)-5-(5-((1-(3-fluoropropyl)azetidin-3-yl)amino)pyridin-2-yl)-7-methyl-7,8-dihydro-[1,3]dioxolo[4,5-g]isoquinolin-6(5H)-yl-2,2-d2)propan-1-ol]
hERG potassium channels
  IC50: > 30 µM
CYP3A4
  IC50: > 30 µM
[1]; 0% RH-80.0% RH
  Hygroscopicity grade: hygroscopic
[1]
  Crystal form after DVS: Did not change
[1]; DVS
  Hygroscopicity 0% RH-80.0% RH: 4.6%
  Hygroscopicity 0.0% RH-95.0% RH: 6.7%
